We go through 12 compounds from patent publication US9321773B2, “Compounds” (Respivert Ltd, priority 2009, dated 2016).

Like-named read-outs stand apart in the source and are kept apart here.

In data set [1] the test system is PMA-differentiated U937 cells. Description: MTT Assay (cell viability). The data set is classed as cell-based, Human. The conditions noted are these: percentage loss of cell viability; for Cell Viability MTT Assay in D-U937 cells at 4 hr: 4 hr in 5% FCS; for Cell Viability MTT Assay in D-U937 cells at 24 hr: 24 hr in 10% FCS. Here is the method: PMA-differentiated U937 cells were pre-incubated with compound for 4 hr in 5% FCS or 10% FCS for 24 hr. The supernatant was replaced with 200 μL of new media and 10 μL of MTT stock solution (5 mg/ml) added to each well. After 1 hr incubation, the media were removed, 200 μL of DMSO added to each well and the plates were shaken lightly for 1 hr prior to reading the absorbance at 550 nm. The percentage loss of cell viability was calculated for each well relative to vehicle (0.5% DMSO)-treatment (Table 3).

Data set [2] addresses recombinant PI3 kinase δ (Homo sapiens (Human), UniProt O00329). Description: Enzyme Inhibition Assay (HTRF PI3K enzyme assay, TR-FRET). The data set is classed as biochemical. The source says: (§1) PI3 kinases catalyse the phosphorylation of phosphatidylinositol 4,5-biphosphate (PIP2) to phosphatidylinositol 3,4,5-triphosphate (PIP3) in the presence of ATP and Mg^2+ ions. The PIP3 product can be detected by displacement of biotin-PIP3 from energy transfer complexes consisting of europium labelled anti-GST monoclonal antibody, a GST-tagged Pleckstrin homology (PH) domain, biotinylated PIP3 and streptavidin-allophycocyanin (APC) by the time-resolved fluorescence resonance energy transfer (TR-FRET) (HTRF® PI3K enzyme assay, Millipore). […] The PIP3 product formed by PI3K activity displaces biotin-PIP3 from the complex and results in a loss of energy transfer (decreasing signal).
(§2) The compound to be tested was added, at the desired final concentrations, to a mixture of PIP2 substrate and recombinant PI3 kinase α, δ or γ enzymes (Millipore), and the mixture incubated for 2 hr at RT. […] A stopping solution containing biotinylated PIP3 and the detection mix containing the GST tagged GRP1 pleckstrin homology (PH) domain and fluorophores were then added and the mixture was incubated at RT for 15-18 hr, prior to detection in a fluorescence microplate reader (Varioskan® Flash, ThermoFisher Scientific).
(In general: In TR-FRET formats the signal depends on donor and acceptor labels being close together.)

The target in data set [3] is recombinant PI3 kinase α (Homo sapiens (Human), UniProt P42336). Described as above. The data set is classed as biochemical.
Text: as §1, §2

Data set [4] addresses recombinant PI3 kinase γ (Homo sapiens (Human), UniProt P48736). The description is as above. Format: biochemical.
Text: as §1, §2

The subject of data set [5] is H2O2 induced pAkt in D-U937 cells. Description: PI3Kδ Cell Based Assay (H2O2 induced pAkt). To be noted: Homo sapiens, dU937. The method, then:
As a means of assessing PI3K 6 activation in response to stimuli, the phosphorylation status of the protein, Akt, a downstream product of PI3K6, signaling was determined. Human monocytic cells (U937 cells), were differentiated to macrophage-type cells by incubation with phorbol myristate acetate (PMA; 100 ng/mL) for 48 to 72 hr. […] The cells were washed with buffer (PBS containing 0.1% Triton X-100) and were incubated with blocking solution (1% BSA in PBS) for 1 hr and were then re-washed with buffer and incubated overnight with either anti-pAkt antibody or anti-pan-Akt antibody (both from Cell Signaling Technology). […] This reaction was stopped by addition of 100 μL of 1N H2SO4 solution. […] The ratio of pAkt signal to total Akt signal was used to quantitate the extent of PI3K δ activation. […] The IC50 values were calculated from the concentration-response curves generated by the serial dilutions of the test compounds (Table 3 and Table 4).

[6] abbreviates: activity range, read-out: PI3 Kinase Inhibition IC50 values at stated Isozyme δ.
The mark [7] stands for this setting: activity range, read-out: PI3 Kinase Inhibition IC50 values at stated Isozyme α.
[8] abbreviates: activity range, read-out: PI3 Kinase Inhibition IC50 values at stated Isozyme γ.
[9] abbreviates: activity range, D-U937 cells, read-out: Cellular Activity IC50 values (H2O2 induced pAkt D-U937 Cells).

Chain of recombinant PI3 kinase α (P42336 whole entry): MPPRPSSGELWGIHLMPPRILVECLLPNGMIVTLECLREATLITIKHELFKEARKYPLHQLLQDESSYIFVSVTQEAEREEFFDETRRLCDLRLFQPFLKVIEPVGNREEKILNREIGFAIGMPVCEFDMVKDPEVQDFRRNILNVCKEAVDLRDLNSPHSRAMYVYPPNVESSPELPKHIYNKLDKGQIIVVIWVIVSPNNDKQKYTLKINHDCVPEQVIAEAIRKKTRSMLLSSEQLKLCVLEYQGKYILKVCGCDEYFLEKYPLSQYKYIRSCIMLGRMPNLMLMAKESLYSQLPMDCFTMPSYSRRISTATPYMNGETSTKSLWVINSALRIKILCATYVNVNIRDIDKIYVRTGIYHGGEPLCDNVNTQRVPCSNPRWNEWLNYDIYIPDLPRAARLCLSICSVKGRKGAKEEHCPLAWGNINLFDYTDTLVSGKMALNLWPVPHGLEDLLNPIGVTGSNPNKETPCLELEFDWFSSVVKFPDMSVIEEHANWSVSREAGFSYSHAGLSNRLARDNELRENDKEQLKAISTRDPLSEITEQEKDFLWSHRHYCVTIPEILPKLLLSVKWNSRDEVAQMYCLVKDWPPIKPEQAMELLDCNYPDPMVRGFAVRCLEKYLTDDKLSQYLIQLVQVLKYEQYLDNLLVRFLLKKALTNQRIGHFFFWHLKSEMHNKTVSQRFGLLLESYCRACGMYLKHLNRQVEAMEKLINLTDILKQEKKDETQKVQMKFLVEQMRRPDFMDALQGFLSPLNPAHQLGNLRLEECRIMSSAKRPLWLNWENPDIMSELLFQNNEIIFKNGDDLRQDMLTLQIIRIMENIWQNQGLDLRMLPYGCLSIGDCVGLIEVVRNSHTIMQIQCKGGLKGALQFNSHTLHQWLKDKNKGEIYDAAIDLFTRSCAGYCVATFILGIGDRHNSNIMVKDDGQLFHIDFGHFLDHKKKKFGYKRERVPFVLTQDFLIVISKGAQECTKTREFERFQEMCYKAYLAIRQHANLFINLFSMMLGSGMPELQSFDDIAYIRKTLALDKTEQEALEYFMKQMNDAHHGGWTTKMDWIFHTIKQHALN
Chain of recombinant PI3 kinase α (P27986 whole entry partner): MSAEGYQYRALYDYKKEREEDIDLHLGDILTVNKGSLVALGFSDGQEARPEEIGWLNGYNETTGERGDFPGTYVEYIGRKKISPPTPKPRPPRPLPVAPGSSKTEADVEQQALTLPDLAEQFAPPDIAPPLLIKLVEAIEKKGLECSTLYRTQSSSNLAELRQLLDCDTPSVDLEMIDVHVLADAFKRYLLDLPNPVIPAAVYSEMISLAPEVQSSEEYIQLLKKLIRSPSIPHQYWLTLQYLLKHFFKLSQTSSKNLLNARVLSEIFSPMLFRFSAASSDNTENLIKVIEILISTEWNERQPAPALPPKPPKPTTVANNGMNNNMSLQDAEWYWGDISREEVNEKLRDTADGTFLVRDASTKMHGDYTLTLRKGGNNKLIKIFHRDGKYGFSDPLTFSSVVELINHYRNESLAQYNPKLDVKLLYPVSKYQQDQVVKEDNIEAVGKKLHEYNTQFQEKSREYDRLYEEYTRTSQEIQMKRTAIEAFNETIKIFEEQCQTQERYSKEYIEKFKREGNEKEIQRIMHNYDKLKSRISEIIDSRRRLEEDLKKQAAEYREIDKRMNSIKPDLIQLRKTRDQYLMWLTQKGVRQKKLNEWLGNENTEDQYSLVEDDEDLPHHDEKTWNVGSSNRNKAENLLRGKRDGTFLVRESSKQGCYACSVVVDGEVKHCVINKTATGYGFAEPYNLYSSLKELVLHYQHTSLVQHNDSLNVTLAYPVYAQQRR
Chain of recombinant PI3 kinase γ (P48736 whole entry): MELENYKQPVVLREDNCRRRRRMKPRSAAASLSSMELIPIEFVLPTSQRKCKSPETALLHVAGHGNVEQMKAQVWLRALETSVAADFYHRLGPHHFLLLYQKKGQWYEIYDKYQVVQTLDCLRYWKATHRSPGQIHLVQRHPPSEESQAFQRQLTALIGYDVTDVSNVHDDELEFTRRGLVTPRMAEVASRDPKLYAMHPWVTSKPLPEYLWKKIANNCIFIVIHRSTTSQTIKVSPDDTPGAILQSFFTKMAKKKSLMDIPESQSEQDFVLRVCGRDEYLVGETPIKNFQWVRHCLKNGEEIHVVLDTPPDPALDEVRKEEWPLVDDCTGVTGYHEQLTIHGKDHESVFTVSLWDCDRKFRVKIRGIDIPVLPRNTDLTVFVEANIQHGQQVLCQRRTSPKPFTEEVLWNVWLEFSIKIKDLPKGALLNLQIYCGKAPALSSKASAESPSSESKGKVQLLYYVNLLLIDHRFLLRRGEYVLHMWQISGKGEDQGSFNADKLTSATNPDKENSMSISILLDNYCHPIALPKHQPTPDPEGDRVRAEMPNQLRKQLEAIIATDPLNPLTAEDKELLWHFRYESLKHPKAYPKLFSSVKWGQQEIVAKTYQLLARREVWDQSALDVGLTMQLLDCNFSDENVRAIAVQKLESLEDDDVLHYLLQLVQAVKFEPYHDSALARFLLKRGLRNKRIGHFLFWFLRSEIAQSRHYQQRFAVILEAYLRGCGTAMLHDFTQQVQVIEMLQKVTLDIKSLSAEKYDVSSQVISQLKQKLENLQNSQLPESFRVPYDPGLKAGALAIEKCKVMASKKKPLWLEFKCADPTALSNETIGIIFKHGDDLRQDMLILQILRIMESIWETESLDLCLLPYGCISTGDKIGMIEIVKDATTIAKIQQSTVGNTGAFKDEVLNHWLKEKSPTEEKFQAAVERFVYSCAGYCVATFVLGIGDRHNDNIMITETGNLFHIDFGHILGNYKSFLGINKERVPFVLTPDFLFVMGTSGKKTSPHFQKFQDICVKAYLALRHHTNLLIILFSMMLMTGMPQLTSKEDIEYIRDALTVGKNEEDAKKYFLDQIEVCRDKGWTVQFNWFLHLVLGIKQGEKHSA
Chain of recombinant PI3 kinase δ (O00329 whole entry): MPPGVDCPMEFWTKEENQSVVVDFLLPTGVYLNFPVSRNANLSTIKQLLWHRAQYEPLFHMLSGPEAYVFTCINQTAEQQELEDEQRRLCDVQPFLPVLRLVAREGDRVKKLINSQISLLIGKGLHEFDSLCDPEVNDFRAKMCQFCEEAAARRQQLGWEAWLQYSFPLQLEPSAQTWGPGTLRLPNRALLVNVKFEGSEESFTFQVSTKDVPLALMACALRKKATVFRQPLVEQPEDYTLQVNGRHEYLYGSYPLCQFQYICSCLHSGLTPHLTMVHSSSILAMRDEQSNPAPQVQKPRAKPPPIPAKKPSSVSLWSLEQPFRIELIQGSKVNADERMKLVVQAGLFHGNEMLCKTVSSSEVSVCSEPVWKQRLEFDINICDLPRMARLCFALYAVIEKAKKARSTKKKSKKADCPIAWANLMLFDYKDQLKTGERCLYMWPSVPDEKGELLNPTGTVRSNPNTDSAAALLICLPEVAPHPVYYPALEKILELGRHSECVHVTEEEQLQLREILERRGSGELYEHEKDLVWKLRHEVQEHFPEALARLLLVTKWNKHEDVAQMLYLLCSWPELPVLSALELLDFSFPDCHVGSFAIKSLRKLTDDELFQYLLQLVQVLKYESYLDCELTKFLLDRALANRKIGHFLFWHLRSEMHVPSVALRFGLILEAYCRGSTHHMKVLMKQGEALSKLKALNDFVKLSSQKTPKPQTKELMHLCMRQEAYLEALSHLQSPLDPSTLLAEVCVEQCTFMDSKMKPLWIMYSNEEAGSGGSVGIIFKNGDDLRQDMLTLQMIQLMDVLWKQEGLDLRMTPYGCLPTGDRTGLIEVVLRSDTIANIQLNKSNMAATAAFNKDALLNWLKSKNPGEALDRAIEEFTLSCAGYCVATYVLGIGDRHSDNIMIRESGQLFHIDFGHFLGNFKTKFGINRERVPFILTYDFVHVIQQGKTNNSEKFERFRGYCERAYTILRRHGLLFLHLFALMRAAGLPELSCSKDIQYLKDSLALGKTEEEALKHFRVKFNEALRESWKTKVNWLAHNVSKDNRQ
Chain of recombinant PI3 kinase δ (P27986 whole entry partner): as the sequence (P27986 whole entry partner) above

As for `Nc1ncnc2c1c(-c1ccc(O)cc1)nn2Cc1nc2cccc(C#CCCCC(=O)NC3CCCC3)c2c(=O)n1Cc1ccccc1Cl` [Example 74, 6-(2-((4-Amino-3-(4-hydroxyphenyl)-1H-pyrazolo[3,4-d]pyrimidin-1-yl)methyl)-3-(2-chlorobenzyl)-4-oxo-3,4-dihydroquinazolin-5-yl)-N-cyclopentylhex-5-ynamide], in data set [1], the “Cell Viability MTT Assay in D-U937 cells at 4 hr” value was “− (− <30%)” and the “Cell Viability MTT Assay in D-U937 cells at 24 hr” value is reported as “− (− <30%)”. Also, the half-maximal inhibitory concentration (IC50) in data set [2] (setting [6]) is < 50 nM.
For `COCCOCCOCC#Cc1cccc2nc(Cn3nc(-c4cccc(O)c4)c4c(N)ncnc43)n(Cc3ccccc3F)c(=O)c12` [Example 50, 2-((4-Amino-3-(3-hydroxyphenyl)-1H-pyrazolo[3,4-d]pyrimidin-1-yl)methyl)-3-(2-fluorobenzyl)-5-(3-(2-(2-methoxyethoxy)ethoxy)prop-1-ynyl)quinazolin-4(3H)-one], in data set [1], the “Cell Viability MTT Assay in D-U937 cells at 4 hr” value is on record as “− (− <30%)”. In addition, the “Cell Viability MTT Assay in D-U937 cells at 24 hr” value in data set [1] was “− (− <30%)”. The IC50 was 50 to 1000 nM in data set [3] (setting [7]), 50 to 1000 nM in data set [4] (setting [8]), < 50 nM in data set [2] (setting [6]) and < 10 nM in data set [5] (setting [9]).
For `Cc1cnc(Cn2c(Cn3nc(-c4cccc(O)c4)c4c(N)ncnc43)nc3cccc(C#CCCCC(=O)N4CCOCC4)c3c2=O)cn1` [Example 57], in data set [1], the “Cell Viability MTT Assay in D-U937 cells at 4 hr” value is recorded as “− (− <30%)” and the “Cell Viability MTT Assay in D-U937 cells at 24 hr” value was “− (− <30%)”. Also, the IC50 in data set [5] (setting [9]) is < 10 nM.
As for `Nc1ncnc2c1c(-c1ccc(O)cc1)nn2Cc1nc2cccc(C#CCCCC(=O)N3CCCC3)c2c(=O)n1Cc1ccccc1Cl` [Example 89, 2-((4-Amino-3-(4-hydroxyphenyl)-1H-pyrazolo[3,4-d]pyrimidin-1-yl)methyl)-3-(2-chlorobenzyl)-5-(6-oxo-6-(pyrrolidin-1-yl)hex-1-yn-1-yl)quinazolin-4(3H)-one], the “Cell Viability MTT Assay in D-U937 cells at 4 hr” value in data set [1] was “− (− <30%)”. For the same compound, the “Cell Viability MTT Assay in D-U937 cells at 24 hr” value in data set [1] is “− (− <30%)”. For the same compound, the IC50 in data set [3] (setting [7]) was > 1000 nM; in data set [3] (read-out: PI3 Kinase Inhibition IC50 values at stated Isozyme (nM) α), 1490 nM; in data set [4] (setting [8]), < 50 nM; in data set [4] (read-out: PI3 Kinase Inhibition IC50 values at stated Isozyme (nM) γ) it was 47 nM; in data set [2] (setting [6]), < 50 nM; in data set [2] (read-out: PI3 Kinase Inhibition IC50 values at stated Isozyme (nM) δ), 3 nM. Further, the half-maximal inhibitory concentration (IC50) was < 10 nM in data set [5] (setting [9]) and 0.2 nM in data set [5] (read-out: Cellular Activity IC50 values (H2O2 induced pAkt (nM) D-U937 Cells)).
Consider `CN1CCCN(C(=O)CCCC#Cc2cccc3nc(Cn4nc(-c5cccc(O)c5)c5c(N)ncnc54)n(Cc4ccccc4Cl)c(=O)c23)CC1` [Example 94, 2-((4-Amino-3-(3-hydroxyphenyl)-1H-pyrazolo[3,4-d]pyrimidin-1-yl)methyl)-3-(2-chlorobenzyl)-5-(6-(4-methyl-1,4-diazepan-1-yl)-6-oxohex-1-ynyl)quinazolin-4(3H)-one], for which, in data set [1], the “Cell Viability MTT Assay in D-U937 cells at 4 hr” value is on record as “− (− <30%)” and the “Cell Viability MTT Assay in D-U937 cells at 24 hr” value was “− (− <30%)”. In addition, the IC50 in data set [2] (setting [6]) lay within 50 to 1000 nM. Further, the 50% inhibitory concentration (IC50) in data set [5] (setting [9]) lay within 10 to 1000 nM.
Take `CN1CCN(CCN(C)C(=O)CCCC#Cc2cccc3nc(Cn4nc(-c5ccc(O)cc5)c5c(N)ncnc54)n(Cc4ccccc4Cl)c(=O)c23)CC1` [Example 85, 6-(2-((4-Amino-3-(4-hydroxyphenyl)-1H-pyrazolo[3,4-d]pyrimidin-1-yl)methyl)-3-(2-chlorobenzyl)-4-oxo-3,4-dihydroquinazolin-5-yl)-N-methyl-N-(2-(4-methylpiperazin-1-yl)ethyl)hex-5-ynamide]: in data set [1], the “Cell Viability MTT Assay in D-U937 cells at 4 hr” value is listed as “− (− <30%)” and the “Cell Viability MTT Assay in D-U937 cells at 24 hr” value is recorded as “− (− <30%)”. The concentration for half-maximal inhibition (IC50) in data set [2] (setting [6]) was < 50 nM. The concentration for half-maximal inhibition (IC50) in data set [5] (setting [9]) was < 10 nM.
Consider `CC(C)NC(=O)CCCC#Cc1cccc2nc(Cn3nc(-c4cccc(O)c4)c4c(N)ncnc43)n(Cc3ccccc3Cl)c(=O)c12` [Example 87, 6-(2-((4-Amino-3-(3-hydroxyphenyl)-1H-pyrazolo[3,4-d]pyrimidin-1-yl)methyl)-3-(2-chlorobenzyl)-4-oxo-3,4-dihydroquinazolin-5-yl)-N-isopropylhex-5-ynamide], for which, in data set [1], the “Cell Viability MTT Assay in D-U937 cells at 4 hr” value is given as “− (− <30%)” and the “Cell Viability MTT Assay in D-U937 cells at 24 hr” value is listed as “− (− <30%)”. Besides, the half-inhibitory concentration (IC50) in data set [2] (setting [6]) is < 50 nM. The IC50 in data set [5] (setting [9]) is < 10 nM.
As to `CN1CCN(CCNC(=O)CCCC#Cc2cccc3nc(Cn4nc(-c5ccc(O)cc5)c5c(N)ncnc54)n(Cc4ccccc4Cl)c(=O)c23)CC1` [Example 84, 6-(2-((4-Amino-3-(4-hydroxyphenyl)-1H-pyrazolo[3,4-d]pyrimidin-1-yl)methyl)-3-(2-chlorobenzyl)-4-oxo-3,4-dihydroquinazolin-5-yl)-N-(2-(4-methylpiperazin-1-yl)ethyl)hex-5-ynamide], in data set [1], the “Cell Viability MTT Assay in D-U937 cells at 4 hr” value was “− (− <30%)”. Besides, the “Cell Viability MTT Assay in D-U937 cells at 24 hr” value in data set [1] is recorded as “− (− <30%)”. The results for the IC50 in data set [2] (setting [6]) and in data set [5] (setting [9]) were < 50 nM and < 10 nM, respectively.
On to `Nc1ncnc2c1c(-c1cccc(O)c1)nn2Cc1nc2cccc(C#CCCCC(=O)Nc3ccncc3)c2c(=O)n1Cc1ccccc1Cl` [Example 80, 6-(2-((4-Amino-3-(3-hydroxyphenyl)-1H-pyrazolo[3,4-d]pyrimidin-1-yl)methyl)-3-(2-chlorobenzyl)-4-oxo-3,4-dihydroquinazolin-5-yl)-N-(pyridin-4-yl)hex-5-ynamide], for which, in data set [1], the “Cell Viability MTT Assay in D-U937 cells at 4 hr” value is recorded as “− (− <30%)” and the “Cell Viability MTT Assay in D-U937 cells at 24 hr” value is “− (− <30%)”. For the same compound, the half-maximal inhibitory concentration (IC50) in data set [2] (setting [6]) is < 50 nM. Also, the 50% inhibitory concentration (IC50) in data set [5] (setting [9]) lay within 10 to 1000 nM.
Take `CN(C)C1CCN(C(=O)CCCC#Cc2cccc3nc(Cn4nc(-c5cccc(O)c5)c5c(N)ncnc54)n(Cc4ccccc4Cl)c(=O)c23)C1` (centres unmarked) [Example 92, 2-((4-Amino-3-(3-hydroxyphenyl)-1H-pyrazolo[3,4-d]pyrimidin-1-yl)methyl)-3-(2-chlorobenzyl)-5-(6-(3-(dimethylamino)pyrrolidin-1-yl)-6-oxohex-1-ynyl) quinazolin-4(3H)-one]: in data set [1], the “Cell Viability MTT Assay in D-U937 cells at 4 hr” value is “− (− <30%)” and the “Cell Viability MTT Assay in D-U937 cells at 24 hr” value is listed as “− (− <30%)”. Besides, the half-inhibitory concentration (IC50) in data set [2] (setting [6]) is < 50 nM. Also, the IC50 in data set [5] (setting [9]) fell in the range of 10 to 1000 nM.
`COCCOCCOCC#Cc1cccc2nc(Cn3nc(-c4cccc(O)c4)c4c(N)ncnc43)n(Cc3ccccc3Cl)c(=O)c12` [Example 2, 2-((4-Amino-3-(3-hydroxyphenyl)-1H-pyrazolo[3,4-d]pyrimidin-1-yl)methyl)-3-(2-chlorobenzyl)-5-(3-(2-(2-methoxyethoxy)ethoxy)prop-1-yn-1-yl)quinazolin-4(3H)-one]: the “Cell Viability MTT Assay in D-U937 cells at 4 hr” value in data set [1] is reported as “− (− <30%)”. The “Cell Viability MTT Assay in D-U937 cells at 24 hr” value in data set [1] is recorded as “− (− <30%)”. Moreover, the half-maximal inhibitory concentration (IC50) in data set [3] (setting [7]) was > 1000 nM; in data set [5] (setting [9]) it was < 10 nM.
Turning to `CC(=O)NCC(=O)NCC#Cc1cccc2nc(Cn3nc(-c4cccc(O)c4)c4c(N)ncnc43)n(Cc3ccccc3Cl)c(=O)c12` [Example 61, 2-Acetamido-N-(3-(2-((4-amino-3-(3-hydroxyphenyl)-1H-pyrazolo[3,4-d]pyrimidin-1-yl)methyl)-3-(2-chlorobenzyl)-4-oxo-3,4-dihydroquinazolin-5-yl)prop-2-yn-1-yl)acetamide], in data set [1], the “Cell Viability MTT Assay in D-U937 cells at 4 hr” value is given as “− (− <30%)” and the “Cell Viability MTT Assay in D-U937 cells at 24 hr” value is reported as “− (− <30%)”. Moreover, in data set [5] (setting [9]), the concentration for half-maximal inhibition (IC50) is < 10 nM.

One may read the IC50 as the concentration needed to halve the response being measured.
